Data on 16 compounds can be found in patent US9108999B2, “2′, 4′-difluoro-2′-methyl substituted nucleoside derivatives as inhibitors of HCV RNA replication” (priority 2011, dated 2015).

Each structure is given as a SMILES string. Where two headings read alike, the source gives them in different places.

The nature of one series: in vitro. The note with it: human.
Series [1] has as its system genotype 1b replicon construct NK5.1 (HCV subgenomic RNA) in Huh7 cell line 2209-23. The experiment in a line: microbe, parasite or virus in culture. The note with it: read-out: HCV Replicon IC50. The series is classed as cell-based, Hepatitis C Virus. On the technique in general: Replicon systems follow genome replication, usually without infectious particles.
In series [2] the test system is HCV replicon cells (2209-23). The note with it: read-out: WST-1 Cytotoxicity CC50; replicon cells 2209-23, three days incubation, WST-1 OD 450 nm. Background: Tetrazolium assays rely on reduction of a dye to a coloured formazan, in cell work by metabolically active cells.
The mark [3] stands for this setting: Hepatitis C virus, Huh-7, 72 h, Huh7 replicon cells 2209-23, three days incubation, Renilla luciferase readout.
Setting [4] is: Huh7 replicon cells 2209-23, three days incubation, Renilla luciferase readout.

In the series “in vitro”, `CC(C)OC(=O)[C@H](C)NP(=O)(OC[C@@]1(F)O[C@@H](n2ccc(=O)[nH]c2=O)[C@](C)(F)[C@@H]1O)Oc1ccccc1` (stereo partly drawn) [Compound I-1, (S)-2-{[(2S,3S,4R,5R)-5-(2,4-Dioxo-3,4-dihydro-2H-pyrimidin-1-yl)-2,4-difluoro-3-hydroxy-4-methyl-tetrahydro-furan-2-ylmethoxy]-phenoxy-phosphorylamino}-propionic acid isopropyl ester] registered a CC50 at 3 days of over 100 µM.
One may read the IC50 as the point on the concentration scale where inhibition reaches its midpoint. In “in vitro”, `CC(C)OC(=O)[C@H](C)NP(=O)(OC[C@@]1(F)O[C@@H](n2ccc(=O)[nH]c2=O)[C@](C)(F)[C@@H]1O)Oc1cccc2ccccc12` (stereo partly drawn) [Compound I-2, (S)-2-[[(2S,3S,4R,5R)-5-(2,4-Dioxo-3,4-dihydro-2H-pyrimidin-1-yl)-2,4-difluoro-3-hydroxy-4-methyl-tetrahydro-furan-2-ylmethoxy]-(naphthalen-1-yloxy)-phosphorylamino]-propionic acid isopropyl ester] returned a CC50 at 3 days of over 100 µM. In series [1] (setting [3]), the IC50 amounted to 0.115 µM.
In the case of `CC(C)OC(=O)[C@H](C)NP(=O)(OC[C@@]1(F)O[C@@H](n2ccc(=O)[nH]c2=O)[C@](C)(F)[C@@H]1O)Oc1ccc2ccccc2c1` (stereo partly drawn) [Compound I-3, (S)-2-[[(2S,3S,4R,5R)-5-(2,4-Dioxo-3,4-dihydro-2H-pyrimidin-1-yl)-2,4-difluoro-3-hydroxy-4-methyl-tetrahydro-furan-2-ylmethoxy]-(naphthalen-2-yloxy)-phosphorylamino]-propionic acid isopropyl ester], the CC50 at 3 days in “in vitro” is over 100 µM.
In turn, `CC(C)OC(=O)[C@H](C)NP(=O)(OC[C@@]1(F)O[C@@H](n2ccc(=O)[nH]c2=O)[C@](C)(F)[C@@H]1OP(=O)(N[C@@H](C)C(=O)OC(C)C)Oc1ccc2ccccc2c1)Oc1ccc2ccccc2c1` (stereo partly drawn) [Compound I-4, (S)-2-[[(2S,3S,4R,5R)-5-(2,4-dioxo-3,4-dihydro-2H-pyrimidin-1-yl)-2,4-difluoro-3-[((S)-1-isopropoxycarbonyl-ethylamino)-(naphthalen-2-yloxy)-phosphoryloxy]-4-methyl-tetrahydro-furan-2-ylmethoxy]-(naphthalen-2-yloxy)-phosphorylamino]-propionic acid isopropyl ester] had a CC50 at 3 days in the series “in vitro” of over 100 µM. Also, the IC50 in series [1] (Hepatitis C virus, Huh-7, 72 h) was 7.19 µM.
For `CCC(=O)O[C@H]1[C@@](C)(F)[C@H](n2ccc(=O)[nH]c2=O)O[C@]1(F)COP(=O)(N[C@@H](C)C(=O)OC(C)C)Oc1cccc2ccccc12` (stereo partly drawn) [Compound I-5, (S)-2-[[(2S,3S,4R,5R)-5-(2,4-Dioxo-3,4-dihydro-2H-pyrimidin-1-yl)-2,4-difluoro-4-methyl-3-propionyloxy-tetrahydro-furan-2-ylmethoxy]-(naphthalen-1-yloxy)-phosphorylamino]-propionic acid isopropyl ester], the CC50 at 3 days in the series “in vitro” worked out at 67.8 µM. Besides, in series [1] (setting [3]), the IC50 came to 0.151 µM.
As for `CC(C)OC(=O)[C@H](C)N[P@](=O)(OC[C@@]1(F)O[C@@H](n2ccc(=O)[nH]c2=O)[C@](C)(F)[C@@H]1O)Oc1ccc2ccccc2c1` [Compound I-6], in the series “in vitro”, the CC50 at 3 days was over 100 µM. In series [1] (Hepatitis C virus, Huh-7, 72 h), the IC50 amounted to 0.0537 µM.
In the case of `CC(C)OC(=O)[C@H](C)N[P@@](=O)(OC[C@@]1(F)O[C@@H](n2ccc(=O)[nH]c2=O)[C@](C)(F)[C@@H]1O)Oc1ccc2ccccc2c1` [Compound I-7], in series [1] (setting [4]), the IC50 is 0.202 µM. The CC50 in series [2] is over 100 µM.
The matching figures for `CC(C)OC(=O)[C@H](C)N[P@@](=O)(OC[C@@]1(F)O[C@@H](n2ccc(=O)[nH]c2=O)[C@](C)(F)[C@@H]1O)Oc1cccc2ccccc12` [Compound I-8, (S)-2-[(R)-[(2S,3S,4R,5R)-5-(2,4-Dioxo-3,4-dihydro-2H-pyrimidin-1-yl)-2,4-difluoro-3-hydroxy-4-methyl-tetrahydro-furan-2-ylmethoxy]-(naphthalen-1-yloxy)-phosphorylamino]-propionic acid isopropyl ester]: 1.03 µM and over 100 µM.
For `CC(C)OC(=O)[C@H](C)N[P@](=O)(OC[C@@]1(F)O[C@@H](n2ccc(=O)[nH]c2=O)[C@](C)(F)[C@@H]1O)Oc1cccc2ccccc12` [Compound I-9, (S)-2-[(S)-[(2S,3S,4R,5R)-5-(2,4-Dioxo-3,4-dihydro-2H-pyrimidin-1-yl)-2,4-difluoro-3-hydroxy-4-methyl-tetrahydro-furan-2-ylmethoxy]-(naphthalen-1-yloxy)-phosphorylamino]-propionic acid isopropyl ester], the CC50 at 3 days in the series “in vitro” is over 100 µM. Further, in series [1] (setting [3]), the IC50 came to 0.0602 µM.
With `CC(C)OC(=O)[C@H](C)N[P@](=O)(OC[C@@]1(F)O[C@@H](n2ccc(=O)[nH]c2=O)[C@](C)(F)[C@@H]1O)Oc1ccccc1` [Compound I-10, (S)-2-{(S)-[(2S,3S,4R,5R)-5-(2,4-Dioxo-3,4-dihydro-2H-pyrimidin-1-yl)-2,4-difluoro-3-hydroxy-4-methyl-tetrahydro-furan-2-ylmethoxy]-phenoxy-phosphorylamino}-propionic acid isopropyl ester], the CC50 at 3 days in the series “in vitro” was over 100 µM. Moreover, the 50% inhibitory concentration (IC50) in series [1] (setting [3]) stood at 0.171 µM.
The matching figures for `CC(C)OC(=O)[C@H](C)N[P@@](=O)(OC[C@@]1(F)O[C@@H](n2ccc(=O)[nH]c2=O)[C@](C)(F)[C@@H]1O)Oc1ccccc1` [Compound I-11, (S)-2-{(R)-[(2S,3S,4R,5R)-5-(2,4-Dioxo-3,4-dihydro-2H-pyrimidin-1-yl)-2,4-difluoro-3-hydroxy-4-methyl-tetrahydro-furan-2-ylmethoxy]-phenoxy-phosphorylamino}-propionic acid isopropyl ester]: 95.6 µM and 1.31 µM.
In “in vitro”, `CC(C)OC(=O)[C@H](C)N[P@](=O)(OC[C@@]1(F)O[C@@H](n2cc(Br)c(=O)[nH]c2=O)[C@](C)(F)[C@@H]1O)Oc1cccc2ccccc12` [Compound I-12, (S)-2-[(S)-[(2S,3S,4R,5R)-5-(5-Bromo-2,4-dioxo-3,4-dihydro-2H-pyrimidin-1-yl)-2,4-difluoro-3-hydroxy-4-methyl-tetrahydro-furan-2-ylmethoxy]-(naphthalen-1-yloxy)-phosphorylamino]-propionic acid isopropyl ester] displayed a CC50 at 3 days of 34.8 µM. Besides, in series [1] (setting [3]), the 50% inhibitory concentration (IC50) stood at 17.4 µM.
In “in vitro”, `CC(C)OC(=O)[C@H](C)N[P@](=O)(OC[C@@]1(F)O[C@@H](n2cc(Br)c(=O)[nH]c2=O)[C@](C)(F)[C@@H]1O)Oc1ccc2ccccc2c1` [Compound I-13] showed a CC50 at 3 days of over 100 µM. Also, the IC50 in series [1] (Hepatitis C virus, Huh-7, 72 h) was 38.5 µM.
For the compound `CC(C)OC(=O)[C@H](C)N[P@@](=O)(OC[C@@]1(F)O[C@@H](n2cc(Br)c(=O)[nH]c2=O)[C@](C)(F)[C@@H]1O)Oc1cccc2ccccc12` [Compound I-14, (S)-2-[(R)-[(2S,3S,4R,5R)-5-(5-Bromo-2,4-dioxo-3,4-dihydro-2H-pyrimidin-1-yl)-2,4-difluoro-3-hydroxy-4-methyl-tetrahydro-furan-2-ylmethoxy]-(naphthalen-1-yloxy)-phosphorylamino]-propionic acid isopropyl ester], in series [1] (setting [4]), the 50% inhibitory concentration (IC50) was 9.64 µM. For the same compound, the CC50 in series [2] is 50.8 µM.
The matching figures for `CC(C)OC(=O)[C@H](C)N[P@@](=O)(OC[C@@]1(F)O[C@@H](n2cc(Br)c(=O)[nH]c2=O)[C@](C)(F)[C@@H]1O)Oc1ccc2ccccc2c1` [Compound I-15]: 13.2 µM and 38.5 µM.
With `CC(C)OC(=O)[C@H](C)NP(=O)(OC[C@@]1(F)O[C@@H](n2cc(Br)c(=O)[nH]c2=O)[C@](C)(F)[C@@H]1O)Oc1ccc2ccccc2c1` (stereo partly drawn) [Compound I-16, (S)-2-[[(2S,3S,4R,5R)-5-(5-Bromo-2,4-dioxo-3,4-dihydro-2H-pyrimidin-1-yl)-2,4-difluoro-3-hydroxy-4-methyl-tetrahydro-furan-2-ylmethoxy]-(naphthalen-2-yloxy)-phosphorylamino]-propionic acid isopropyl ester], in “in vitro”, the CC50 at 3 days is over 100 µM. The IC50 in series [1] (Hepatitis C virus, Huh-7, 72 h) came to 77.6 µM.
